Measurements published in patent US7109338B2, “1,2-disubstituted 1,4-dihydro-4-oxoquinoline compounds” (priority 1999, dated 2006).
Values after ≈ are worked out from the molar mass of the structure shown.

Tests used:
[1] = Cytotoxicity (MTT, without virus), HeLa(Ohio); conditions: human, HeLa (Ohio strain) cells (uninfected)
HRV 2 (HGP) = assay: Anti-rhinovirus activity (MTT), HRV2; assay type: cell-based, human rhinovirus; conditions: Human rhinovirus sp., HRV2; HeLa (Ohio strain) cells, MTT method, 33° C.; read-out: IC50 HRV2
[2] = tested on: coxsackievirus type B4 (CB4,JVB); assay: In vitro anti-picornavirus activity (MTT), CB4; assay type: cell-based; conditions: Coxsackievirus; HeLa cells, MTT method, 37° C.
[3] = tested on: human rhinovirus type 1B (HRV 1B, B632); assay: Anti-rhinovirus activity (MTT), HRV1B; assay type: cell-based; conditions: Human rhinovirus sp., HRV1B; HeLa (Ohio strain) cells, MTT method, 33° C.; read-out: IC50 HRV1B
HRV1A (E28) = assay: Anti-rhinovirus activity (MTT), HRV1A; assay type: cell-based, human rhinovirus; conditions: Human rhinovirus sp., HRV1A, HeLa, read-out: IC50 HRV 1A
HRV14 (1059) = assay: Anti-rhinovirus activity (MTT), HRV14; assay type: cell-based, human rhinovirus; conditions: Human rhinovirus sp., HRV14; HeLa (Ohio strain) cells, MTT method, 33° C.; read-out: IC50 HRV 14
[4] = Cytotoxicity (MTT, without virus), HeLa; conditions: human, HeLa cells (uninfected)
[5] = tested on: Poliovirus type 1 (Polio 1, Sabin); assay: microbe, parasite or virus in culture; assay type: cell-based; conditions: Enterovirus C, HeLa S3, read-out: IC50 Polio 1
[6] = tested on: coxsackievirus type A7 (CA7); assay: In vitro anti-picornavirus activity (MTT), CA7; assay type: cell-based; conditions: Coxsackievirus; HeLa-S3 cells, MTT method, 37° C.
[7] = Cytotoxicity (MTT, without virus), HeLa-S3; conditions: human, HeLa-S3 cells (uninfected)
[8] = tested on: echovirus type 11 (Echo 11, Gregory); assay: In vitro anti-picornavirus activity (MTT), Echo 11; assay type: cell-based; conditions: Enterovirus B; HeLa-S3 cells, MTT method, 37° C.
HRV 89 (41617-Gallo) = assay: Anti-rhinovirus activity (MTT), HRV89; assay type: cell-based, human rhinovirus; conditions: Human rhinovirus sp., HRV89; HeLa (Ohio strain) cells, MTT method, 33° C.; read-out: IC50 HRV89

Compound | CC50 at 4 days [1] | IC50 (HRV 2 (HGP)) | IC50 [2] | melting point | IC50 [3] | IC50 (HRV1A (E28)) | IC50 (HRV14 (1059)) | CC50 at 4 days [4] | IC50 [5] | IC50 [6] | CC50 at 4 days [7] | IC50 [8] | IC50 (HRV 89 (41617-Gallo))
CCn1c2c(c(=O)c3cc(C(C)C)ccc31)Cc1c(C)csc1-2 [Compound D52, 10-Ethyl-7-isopropyl-3-methyl-5,10-dihydro-4H-thieno[3′,2′:4,5]cyclopenta[1,2-b]quinolin-5-one] | > 5 µg/mL | 0.86 µg/mL (≈ 2.66 µM) | 3 µg/mL (≈ 9.27 µM) | 195 °C (dec.) | 0.89 µg/mL (≈ 2.75 µM) | 3.1 µg/mL (≈ 9.58 µM) | 1.1 µg/mL (≈ 3.4 µM) | > 5 µg/mL | 1 µg/mL (≈ 3.09 µM) | > 5 µg/mL | > 5 µg/mL | 0.55 µg/mL (≈ 1.7 µM) | 0.85 µg/mL (≈ 2.63 µM)
CCn1c(-c2ccco2)cc(=O)c2cc(C(C)C)ccc21 [Compound A304, 1-Ethyl-2-(2-furyl)-6-isopropyl-1,4-dihydro-4-oxoquinoline] | 19 µg/mL (≈ 67.5 µM) | 0.34 µg/mL (≈ 1.21 µM) | 1.9 µg/mL (≈ 6.75 µM) | 70 to 73 °C | 0.76 µg/mL (≈ 2.7 µM) | – | – | 18 µg/mL (≈ 64 µM) | 0.8 µg/mL (≈ 2.84 µM) | 3.6 µg/mL (≈ 12.8 µM) | > 20 µg/mL | 0.35 µg/mL (≈ 1.24 µM) | 0.9 µg/mL (≈ 3.2 µM)
CCn1c2c(c(=O)c3cc(C(C)C)ccc31)Cc1c-2ccn1C [Compound D53, 4-Ethyl-7-isopropyl-1-methyl-4,9-dihydro-10H-pyrrolo[2′,3′:4,5]cyclopenta[1,2-b]quinolin-9-one] | > 10 µg/mL | 0.91 µg/mL (≈ 2.97 µM) | > 3.3 µg/mL | 91 to 93 °C | 1.6 µg/mL (≈ 5.22 µM) | > 10 µg/mL | 2.3 µg/mL (≈ 7.51 µM) | > 10 µg/mL | 1.8 µg/mL (≈ 5.87 µM) | > 10 µg/mL | > 10 µg/mL | 0.68 µg/mL (≈ 2.22 µM) | 1.4 µg/mL (≈ 4.57 µM)
CCn1c(-c2ccc(OC)c(C)c2)c(C)c(=O)c2c(C)c(OCC(C)C)ccc21 [Compound A191, 1-Ethyl-2-(3-methyl-4-methoxyphenyl)-3,5-dimethyl-6-isobutoxy-1,4-dihydro-4-oxoquinoline] | > 4 µg/mL | 0.15 µg/mL (≈ 0.381 µM) | 1.6 µg/mL (≈ 4.07 µM) | 149 °C | 1.3 µg/mL (≈ 3.3 µM) | – | – | > 4 µg/mL | 0.4 µg/mL (≈ 1.02 µM) | 2.5 µg/mL (≈ 6.35 µM) | > 4 µg/mL | 0.19 µg/mL (≈ 0.483 µM) | 0.2 µg/mL (≈ 0.508 µM)
CCn1c(-c2ccccc2)c(C)c(=O)c2cc(C(C)C)ccc21 [Compound A37, 1-Ethyl-2-phenyl-3-methyl-6-isopropyl-1,4-dihydro-4-oxoquinoline] | 11 µg/mL (≈ 36 µM) | 0.83 µg/mL (≈ 2.72 µM) | 6.7 µg/mL (≈ 21.9 µM) | 159 to 165 °C | 1 µg/mL (≈ 3.27 µM) | – | – | 11 µg/mL (≈ 36 µM) | 1.1 µg/mL (≈ 3.6 µM) | 3.8 µg/mL (≈ 12.4 µM) | 12 µg/mL (≈ 39.3 µM) | 0.91 µg/mL (≈ 2.98 µM) | 0.54 µg/mL (≈ 1.77 µM)
